# Test results published in PMC12175907 (Science Advances, 2025).
# Columns and labels:
# DIO GLP-1R KO mice = test: chronic treatment, food intake and body weight, DIO GLP-1R KO mice; assay type: in vivo, mouse; conditions: GIP-085 300 nmol/kg, semaglutide 3 nmol/kg or combo, sc daily, 16 days; n = 6 per group
# From the text: DIO adult male C57BL/6 mice (Taconic) C57BL/6 (n = 23, weighing ~43 g at arrival), GLP-1R KO (germline knockout line: 11549, n = 24, weighing ~38 g at arrival), and GIPR KO mice (germline knockout line: 2886, n = 24, weighing ~35 g at arrival) were used. Upon arrival, mice were individually housed and continued to be fed ad libitum on high-fat/high-sugar diet (60% fat diet, 12492, Research Diets).
# GIPFA-085 (GIP-085), tirzepatide, and GLP-140 were designed and produced by Eli Lilly and Company. GIP-085, GLP-140, and semaglutide (Cayman Chemical) were dissolved in 40 mM tris-HCl buffer (pH 8) and 0.02% Tween 80. For the study in mice, all drugs were injected subcutaneously at a volume of 5 ml/kg of body weight. In rats, all drugs were injected intraperitoneally, at a volume of 1 ml/kg of body weight, except when noted. In shrews, all drugs were injected intraperitoneally at a volume of 10 ml/kg of body weight.
# C57BL/6 wild-type (n = 23), GLP-1R KO (n = 24), and GIPR KO mice (n = 24) received daily subcutaneous administration of GIP-085 (300 nmol/kg), semaglutide (3 nmol/kg), GIP-085/semaglutide combo, or vehicle for 16 days. Food intake and body weight were manually measured daily. […] Body composition of mice was determined using quantitative nuclear magnetic resonance analysis (ECHO MRI, 3-1 Composition Analyzer; Echo Medical Systems). […]
# DIO wild-type mice = test: body composition (ECHO MRI), DIO wild-type mice; assay type: in vivo, C57BL/6 mouse; conditions: 16 days daily sc, GIP-085 300 nmol/kg, semaglutide 3 nmol/kg, mean ± SEM, n=5-6 per group
# Method: (§1) C57BL/6 wild-type (n = 23), GLP-1R KO (n = 24), and GIPR KO mice (n = 24) received daily subcutaneous administration of GIP-085 (300 nmol/kg), semaglutide (3 nmol/kg), GIP-085/semaglutide combo, or vehicle for 16 days. Food intake and body weight were manually measured daily. The average body weight at the start of the experiment was 43.7 ± 0.4 g for the wild-type group, 39.0 ± 0.6 g for the GLP-1R KO group, and 36.5 ± 0.4 g for the GIPR KO group. Body composition of mice was determined using quantitative nuclear magnetic resonance analysis (ECHO MRI, 3-1 Composition Analyzer; Echo Medical Systems). At the end of the experiment, the animals were euthanized by CO2.
# GLP-1R KO DIO mice = test: body composition (ECHO MRI), GLP-1R KO DIO mice; assay type: in vivo, mouse; conditions: n=6 per group
# Method: as §1
# DIO GIPR KO mice = test: body composition (ECHO MRI), DIO GIPR KO mice; assay type: in vivo, mouse; conditions: 16 days daily sc, GIP-085 300 nmol/kg, semaglutide 3 nmol/kg, mean ± SEM, n=6 per group
# Method: as §1
# shrews [1] = test: IPGTT, semaglutide, shrews; assay type: in vivo, Suncus murinus; conditions: 10, 100 and 500 nmol/kg ip, 30 min before glucose 2 g/kg ip, 20 min post-glucose, n = 8 per group
# From the text: (§2) Adult male shrews (S. murinus) weighing ~50 to 80 g (n = 84 total) were bred and maintained in the De Jonghe Lab (University of Pennsylvania). These animals were offspring from a colony previously maintained at the University of Pittsburgh Cancer Institute (C. Horn); a Taiwanese strain was derived from stock originally supplied by the Chinese University of Hong Kong. Shrews were singly housed in plastic cages (37.3 cm by 23.4 cm by 14 cm, Innovive) under a 12-hour/12-hour light/dark cycle in a temperature-controlled and humidity-controlled environment. Animal were fed ad libitum with a mixture of feline (75%, Laboratory Feline Diet 5003, Lab Diet) and mink food (25%, High Density Ferret Diet 5LI4, Lab Diet) and had ad libitum access to tap water except where noted.
# The protocol for performing an IPGTT in shrews (n = 16) was previously described ([27]). Briefly, each shrews received intraperitoneal injection of semaglutide (10, 100, and 500 nmol/kg) or vehicle (10 ml/kg body weight) followed 30 min later by a glucose bolus injection [2 g/kg, intraperitoneally (ip)]. Blood glucose readings were taken at −30, 0, 20, 40, 60, and 120 min post-glucose administration. This study was conducted using a partial within-subject design, with each animal receiving two treatments separated by a 7-day interval.
# shrews [2] = test: food intake and body weight, semaglutide dose-response, shrews; assay type: in vivo, Suncus murinus; conditions: 10, 50, 100 and 500 nmol/kg ip, n = 8 per group (legend)
# From the text: as §2
# We evaluated the effects on food intake and body weight of different doses of semaglutide. Food was removed 2 hours prior to dark onset. Shortly before dark onset, shrews (n = 9, ~59 ± 2 g) received intraperitoneal injection of semaglutide (10, 50, 100, and 500 nmol/kg) or vehicle. Shrews had ad libitum access to powdered food through a circular (3 cm in diameter) hole in the cage. Food intake was evaluated using our custom-made “feedometers,” consisting of a standard plexiglass rodent housing cage (29 cm by 19 cm by 12.7 cm) with mounted food hoppers resting on a plexiglass cup (to account for spillage). Food intake was manually measured at 6, 24, 48, and 72 hours postinjection. Body weight was taken at 0, 24, 48, and 72 hours. Treatments occurred in a within-subject, counterbalanced design and were 7 days apart.
# [3] = system: adults with overweight or obesity; parameters: method as in 2 sources, ref 4 = [4]; PMID 33567185; doi:10.1056/NEJMoa2032183; 4 J. P. H. Wilding , R. L. Batterham , S. Calanna , M. Davies , L. F. Van Gaal , I. Lingvay , B. M. McGowan , J. Rosenstock , M. T. D. Tran , T. A. Wadden , S. Wharton , K. Yokote , N. Zeuthen , R. F. ||| ref 6 = [6]; PMID 34514682; doi:10.1111/dom.14551; 6 S. Wharton , S. Calanna , M. Davies , D. Dicker , B. Goldman , I. Lingvay , O. Mosenzon , D. M. Rubino , M. Thomsen , T. A. Wadden , S. D. Pedersen , Gastrointestinal tolerability of once-weekly sem; conditions: cited from earlier work
substance,measurement,setting,value
semaglutide,anorectic effects / food intake,DIO GLP-1R KO mice,absent
same,body weight,DIO GLP-1R KO mice,absent
same,total fat mass at the end of the experiment,DIO wild-type mice; Veh: 17.9±0.5g,12.2 ± 0.8 g
same,total lean mass at the end of the experiment,DIO wild-type mice; Veh: 24.8±0.6g,24.6 ± 0.7 g
same,total fat mass at the end of the experiment,"GLP-1R KO DIO mice; 16 days daily sc, GIP-085 300 nmol/kg, semaglutide 3 nmol/kg, mean ± SEM, Veh: 17.3±0.8g",15.5 ± 0.9 g
same,total lean mass at the end of the experiment,"GLP-1R KO DIO mice; 16 days daily sc, GIP-085 300 nmol/kg, semaglutide 3 nmol/kg, mean ± SEM, Veh: 24.1±0.6g",23.9 ± 0.7 g
same,body composition changes,"GLP-1R KO DIO mice; semaglutide 3 nmol/kg and dual semaglutide/GIP-085, 16 days",No changes
same,total fat mass at the end of the experiment,DIO GIPR KO mice; Veh: 14.2±0.6g,8.1 ± 0.6 g
same,total lean mass at the end of the experiment,DIO GIPR KO mice; Veh: 22.3±0.5g,20.9 ± 0.3 g
same,blood glucose levels following glucose,shrews [1],significantly reduced glucose levels in a dose-dependent manner
same,blood glucose levels following glucose,shrews [1]; listed as Semaglutide,dose-dependently suppresses blood glucose levels
same,body weight loss,shrews [2],significant body weight loss up to 72 hours after the highest dose tested
same,food intake (anorexia),shrews [2],causes anorexia in a dose-dependent manner
same,body weight loss,shrews [2]; listed as Semaglutide,dose-dependently induces body weight loss
same,patients reporting nausea,[3]; STEP 1,44.2%
same,patients reporting vomiting,[3]; STEP 1,24.8%
same,weight loss,[3]; people with overweight/obesity without type 2 diabetes,double-digit weight loss
same,participants with dose reduction or temporary treatment interruption (GI side effects),[3]; pooled STEP 1-3 trials,~ 12.5%
same,permanent treatment discontinuation (GI side effects),[3]; pooled STEP 1-3 trials,~ 4.3%
